Test results reported in patent EP1290011B1 (Oncopeptides AB, priority 2000, dated 2001).
Where a name gives a salt, the structure may show the parent alone.

What was measured:
Test in all cases: cells
H69AR = type: cell-based, human; settings: H69AR, doxorubicin resistance; 72 hours incubation; read-out: IC50
8226LR5 = type: cell-based, human; settings: 8226LR5, melphalan resistance; 72 hours incubation; read-out: IC50
[1] = system: panel of ten human tumour cell lines; type: cell-based; settings: mean over the ten cell lines; read-out: MEAN IC50
ACHN = type: cell-based, human; settings: ACHN, primary resistant renal carcinoma; 72 hours incubation; read-out: IC50
H69 = type: cell-based, human; settings: H69, small cell lung cancer; 72 hours incubation; read-out: IC50
U937vcr = type: cell-based, human; settings: U937vcr, vincristine resistance; 72 hours incubation; read-out: IC50
CEM/S = type: cell-based, human; settings: CEM/S; 72 hours incubation; read-out: IC50
U937gtb = type: cell-based, human; settings: U937gtb, lymphoma; 72 hours incubation; read-out: IC50
8226S = type: cell-based, human; settings: 8226S, myeloma; 72 hours incubation; read-out: IC50
8226Dox40 = type: cell-based, human; settings: 8226Dox40, doxorubicin resistance; 72 hours incubation; read-out: IC50
CEM/R = type: cell-based, human; settings: CEM/R; 72 hours incubation; read-out: IC50
[2] = system: solid tumour fresh human tumour specimens (PHTC); settings: 72 h, read-out: Tumour cell survival index % Solid
[3] = system: hematological fresh human tumour specimens (PHTC); settings: 72 h, read-out: Tumour cell survival index % Hematological

## CCOC(=O)[C@H](Cc1ccc(OC)cc1)NC(=O)[C@@H](N)Cc1ccc(N(CCCl)CCCl)cc1 [JV25, L-Melphalanyl-L-p-methoxyphenylalanine ethyl ester hydrochloride]
H69AR
  IC50: 280 nM
8226LR5
  IC50: 1820 nM
[1]
  IC50: 460 nM
ACHN
  IC50: 200 nM
H69
  IC50: 40 nM
U937vcr
  IC50: 160 nM
CEM/S
  IC50: 40 nM
U937gtb
  IC50: 150 nM
8226S
  IC50: 650 nM
8226Dox40
  IC50: 1200 nM
CEM/R
  IC50: 20 nM

## O=c1[nH]cc(F)c(=O)[nH]1 [Example 5-FU, 5-FU, reference compound]
H69AR
  IC50: 769000 nM
8226LR5
  IC50: 5300 nM
[1]
  IC50: 321000 nM
ACHN
  IC50: 769000 nM
H69
  IC50: 769000 nM
U937vcr
  IC50: 572000 nM
CEM/S
  IC50: 57400 nM
8226S
  IC50: 75600 nM
8226Dox40
  IC50: 60600 nM
CEM/R
  IC50: 44500 nM

## CCOC(=O)[C@H](Cc1ccc([N+](=O)[O-])cc1)NC(=O)[C@@H](N)Cc1ccc(N(CCCl)CCCl)cc1 [JV26, L-Malphalanyl-L-p-nitrophenylalanine ethyl ester hydrochloride]
H69AR
  IC50: 510 nM
8226LR5
  IC50: 1990 nM
[1]
  IC50: 610 nM
ACHN
  IC50: 220 nM
H69
  IC50: 60 nM
U937vcr
  IC50: 260 nM
CEM/S
  IC50: 50 nM
U937gtb
  IC50: 230 nM
8226S
  IC50: 1050 nM
8226Dox40
  IC50: 1730 nM
CEM/R
  IC50: 30 nM

## Nc1ccn([C@@H]2O[C@H](CO)[C@@H](O)[C@@H]2O)c(=O)n1 [AraC]
[2]
  viability at 10.3 µM: 102%

## CCC1=C[C@@H]2CN(C1)Cc1c([nH]c3ccccc13)[C@@](C(=O)OC)(c1cc3c(cc1OC)N(C)[C@H]1[C@@](O)(C(=O)OC)[C@H](OC(C)=O)[C@]4(CC)C=CCN5CC[C@]31[C@@H]54)C2 [Vinorelbine, vinorelbine]
[3]
  viability at 3.1 µM: 50%
[2]
  viability at 3.1 µM: 73%

## CCOC(=O)[C@H](Cc1ccc(N(CCCl)CCCl)cc1)NC(=O)[C@@H](N)Cc1ccc(N(CCCl)CCCl)cc1 [JV27, L-Melphalanyl-L-melphalan ethyl ester hydrochloride]
H69AR
  IC50: 1400 nM
8226LR5
  IC50: 2460 nM
[1]
  IC50: 760 nM
ACHN
  IC50: 210 nM
H69
  IC50: 290 nM
U937vcr
  IC50: 260 nM
CEM/S
  IC50: 140 nM
U937gtb
  IC50: 160 nM
8226Dox40
  IC50: 1580 nM
CEM/R
  IC50: 100 nM

## COc1cc([C@@H]2c3cc4c(cc3[C@@H](O[C@@H]3O[C@@H]5CO[C@@H](C)O[C@H]5[C@H](O)[C@H]3O)[C@H]3COC(=O)[C@H]23)OCO4)cc(OC)c1O [Etoposide, etoposide]
[3]
  viability at 8.5 µM: 47%
[2]
  viability at 8.5 µM: 81%
